Measured values from patent publication US20230399312A1, “SUBSTITUTED PYRIMIDINES AND METHODS OF USE” (THERAVANCE BIOPHARMA R&D IP, LLC, priority 2020, published 2023).

Columns and labels:
[1] = biological target: T1, recombinant human ALK5 (TGF-βR1) protein (Homo sapiens, UniProt P36897); assay: Biochemical ALK5 (TGF-βR1) assay to measure pKi (LANCE Ultra ULight kinase assay); settings: apparent pKi, converted from pIC50 by Cheng-Prusoff
T1 construct: purchased Life Technologies PR9075A
T1 sequence (P36897 34-503): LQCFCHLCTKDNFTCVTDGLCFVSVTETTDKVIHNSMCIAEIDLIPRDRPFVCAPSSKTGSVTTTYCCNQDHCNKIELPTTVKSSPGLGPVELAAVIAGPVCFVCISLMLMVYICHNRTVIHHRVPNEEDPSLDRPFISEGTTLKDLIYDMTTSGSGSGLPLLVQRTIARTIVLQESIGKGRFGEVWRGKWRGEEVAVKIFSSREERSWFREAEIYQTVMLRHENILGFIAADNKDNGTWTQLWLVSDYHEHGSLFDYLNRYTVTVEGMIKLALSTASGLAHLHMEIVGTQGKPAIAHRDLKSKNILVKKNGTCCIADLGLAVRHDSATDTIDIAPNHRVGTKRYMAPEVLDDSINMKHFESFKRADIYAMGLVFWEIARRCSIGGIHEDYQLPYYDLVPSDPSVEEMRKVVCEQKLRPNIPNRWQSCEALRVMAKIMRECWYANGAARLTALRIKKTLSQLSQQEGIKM
Outline: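 Cmpd + enzyme, 60 min RT; ATP from 125 μM (5×) stock, 60 min 37 °C; stop 12 mM EDTA/Eu anti-pThr1342 Topo2α Ab (pH 7.0 buffer); TR-FRET 665 nm. DMSO = max, SD-208 = min signal. 4-PL pIC50 → pKi (Cheng-Prusoff).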

[2] = system: TGF-β-stimulated SMAD3 phosphorylation in BEAS-2B cells; assay: Cellular ALK5 potency assay, inhibition of TGF-β stimulated pSMAD3 formation in BEAS-2B cells; type: cell-based; settings: Homo sapiens, pSMAD3, TGF-β 10 ng/mL, read-out: BEAS2B pIC50 (converted)
Outline: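 Human lung epithelial BEAS-2B cells were pre-treated with compound for 1 h at 37 °C, then stimulated with TGF-β (final 10 ng/mL) for 30 min before lysis. pSMAD3 was quantified by AlphaLISA and pIC50 derived from dose-dependent signal change versus TGF-β-stimulated untreated cells.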

SMILES | Ki [1] | IC50 [2]
Cc1cccc(-c2nccc(Nc3ccnc(Nc4ccc(N5CCOCC5)cn4)n3)n2)n1 [Compound 281, N4-[2-(6-methyl-2-pyridyl)pyrimidin-4-yl]-N2-(5-morpholino-2-pyridyl)pyrimidine-2,4-diamine] | 0.398 to 3.16 nM | 25.1 to 158 nM
Cc1cccc(-c2nccc(Nc3ccnc(Nc4ccc(CN5CCC[C@@H](C(=O)OCC6CNC6)C5)cc4)n3)n2)n1 [Compound 400, azetidin-3-ylmethyl (R)-1-(4-((4-((2-(6-methylpyridin-2-yl)pyrimidin-4-yl)amino)pyrimidin-2-yl)amino)benzyl)piperidine-3-carboxylate] | 0.0398 to 0.316 nM | 25.1 to 158 nM
Cc1cccc(-c2nccc(Nc3ccnc(Nc4ccc(CC5CCNCC5)cc4)n3)n2)n1 [Compound 476, N4-[2-(6-methyl-2-pyridyl)pyrimidin-4-yl]-N2-[4-(4-piperidylmethyl)phenyl] pyrimidine-2,4-diamine] | 0.0398 to 0.316 nM | 25.1 to 158 nM
Cc1cccc(-c2nccc(Nc3ccnc(Nc4ccc(NS(=O)(=O)c5ccc(C(N)=O)cc5)cc4)n3)n2)n1 [Compound 162, 4-[[4-[[4-[[2-(6-methyl-2-pyridyl)pyrimidin-4-yl]amino]pyrimidin-2-yl]amino]phenyl]sulfamoyl] benzamide] | 0.398 to 3.16 nM | 200 to 1260 nM
Cc1cccc(-c2nccc(Nc3ccnc(Nc4ccc(Cl)c(NC(=O)C5CCNCC5)c4)n3)n2)n1 [Compound 135, N-[2-chloro-5-[[4-[[2-(6-methyl-2-pyridyl)pyrimidin-4-yl]amino]pyrimidin-2-yl]amino]phenyl]piperidine-4-carboxamide] | 0.0398 to 0.316 nM | ≤ 20 nM
Cc1cccc(-c2nccc(Nc3ccnc(Nc4nc(C(=O)NCC5(CO)CNC5)cs4)n3)n2)n1 [Compound 140, N-[[3-(hydroxymethyl)azetidin-3-yl]methyl]-2-[[4-[[2-(6-methyl-2-pyridyl)pyrimidin-4-yl]amino]pyrimidin-2-yl]amino]thiazole-4-carboxamide] | 0.0398 to 0.316 nM | 25.1 to 158 nM
Cc1cccc(-c2nccc(Nc3ccnc(Nc4cc(F)c(C(=O)N5CCNCC5)c(Cl)c4)n3)n2)n1 [Compound 2, [2-chloro-6-fluoro-4-[[4-[[2-(6-methyl-2-pyridyl)pyrimidin-4-yl]amino]pyrimidin-2-yl]amino]phenyl]-piperazin-1-yl-methanone] | 0.398 to 3.16 nM | 25.1 to 158 nM

Second part, led by results:

Ki [1] | SMILES | IC50 [2]
0.398 to 3.16 nM | CC(=O)Nc1ccc(Nc2nccc(Nc3ccnc(-c4cccc(C)n4)n3)n2)cc1 [Compound 316, N-[4-[[4-[[2-(6-methyl-2-pyridyl)pyrimidin-4-yl]amino]pyrimidin-2-yl]amino]phenyl]acetamide] | 25.1 to 158 nM
0.0398 to 0.316 nM | COC(=O)C1CNCCN1c1ccc(Nc2nccc(Nc3ccnc(-c4cccc(C)n4)n3)n2)cc1 (stereo not drawn) [Compound 204, methyl 1-[4-[[4-[[2-(6-methyl-2-pyridyl)pyrimidin-4-yl]amino]pyrimidin-2-yl]amino]phenyl]piperazine-2-carboxylate] | 25.1 to 158 nM
0.0398 to 0.316 nM | Cc1cccc(-c2nccc(Nc3ccnc(Nc4csc(C(=O)OCCNC5CNC5)c4)n3)n2)n1 [Compound 560, 2-(azetidin-3-ylamino)ethyl 4-[[4-[[2-(6-methyl-2-pyridyl)pyrimidin-4-yl]amino]pyrimidin-2-yl]amino]thiophene-2-carboxylate] | 25.1 to 158 nM
0.0398 to 0.316 nM | Cc1cccc(-c2nccc(Nc3ccnc(Nc4ccc(C(=O)OCC56CNCC5C6)nc4)n3)n2)n1 (stereo not drawn) [Compound 557, 3-azabicyclo[3.1.0]hexan-1-ylmethyl 5-[[4-[[2-(6-methyl-2-pyridyl)pyrimidin-4-yl]amino]pyrimidin-2-yl]amino]pyridine-2-carboxylate] | 200 to 1260 nM
0.0398 to 0.316 nM | Cc1cccc(-c2nccc(Nc3ccnc(Nc4ccc(CN5CC(C(=O)OCC6CNC6)C5)cc4)n3)n2)n1 [Compound 88, azetidin-3-ylmethyl 1-(4-((4-((2-(6-methylpyridin-2-yl)pyrimidin-4-yl)amino)pyrimidin-2-yl)amino)benzyl)azetidine-3-carboxylate] | 25.1 to 158 nM
